10 compounds from US6770637B2, “Substituted 4-phenyl-pyridine compounds with activity as antagonists of neurokinin 1 receptors” (Hoffmann-La Roche Inc., priority 2000, dated 2004) can be followed below.

In the experiment the target is T1, human NK1 receptor (Homo sapiens, UniProt P25103).
T1 construct: expressed in transfected cells; host or cells: CHO cells infected with the Semliki virus expression system; membrane suspension
T1 sequence (P25103 whole entry): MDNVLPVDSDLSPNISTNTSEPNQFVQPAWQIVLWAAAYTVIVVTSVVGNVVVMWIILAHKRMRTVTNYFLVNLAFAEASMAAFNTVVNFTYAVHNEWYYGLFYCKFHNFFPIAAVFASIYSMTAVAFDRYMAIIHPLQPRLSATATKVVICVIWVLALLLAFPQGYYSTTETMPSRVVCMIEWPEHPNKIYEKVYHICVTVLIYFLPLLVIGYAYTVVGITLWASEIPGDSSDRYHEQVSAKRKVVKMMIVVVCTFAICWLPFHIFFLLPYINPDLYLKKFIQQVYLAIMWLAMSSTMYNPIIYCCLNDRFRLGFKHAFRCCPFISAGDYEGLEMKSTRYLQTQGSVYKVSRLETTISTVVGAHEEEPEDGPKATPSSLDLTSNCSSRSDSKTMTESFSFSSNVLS
Kind of experiment: NK1 receptor binding assay, displacement of [3H]substance P. The note with it: affinity to the NK-1 receptor; human NK1 receptors in CHO cells (Semliki virus expression system); [3H]substance P 0.6 nM. The protocol: The affinity of tests compounds for the NK1 receptor was evaluated at human NK 1 receptors in CHO cells infected with the human NK1 receptor (using the Semliki virus expression system) and radiolabelled with [^3H]substance P (final concentration 0.6 nM.) Binding assays were performed in HEPES buffer (50 mM, pH 7.4) containing BSA (0.04%) leupeptin (8 μg/ml), MnCl2 (3 mM) and phosphoramidon (2 μM). Binding assays consisted of 250 μl of membrane suspension (1.25×10^5 cells/assay tube), […] of bugger of displacing agent and 125 μl of [^3H]substance P. Displacement curves were determined with at least seven concentrations of the compound. The assay tubes were incubated for 60 min at room temperature after which time the tube contents were rapidly filtered under vacuum through GF/C filters presoaked for 60 min with PEI (0.3%) with 2×2 ml washes of HEPES buffer (50 mM, pH 7.4). The radioactivity retained on the filters was measured by scintillation counting. All assays were performed in triplicate in at least 2 separate experiments.
As for `CC(=O)c1ccc(-c2cc(-c3ccccc3C)c(C(=O)N(C)Cc3cc(C(F)(F)F)cc(C(F)(F)F)c3)cn2)s1` [Example 38, 6-(5-Acetyl-thiophen-2-yl)-N-(3,5-bis-trifluoromethyl-benzyl)-N-methyl-4-o-tolyl-nicotinamide], the Ki is 2.14 nM.

`Cc1ccccc1-c1cc(NC(=O)CO)ncc1N(C)C(=O)C(C)(C)c1cc(C(F)(F)F)cc(C(F)(F)F)c1` [Example 13, 2-(3,5-Bis-trifluoromethyl-phenyl)-N-[6-(2-hydroxy-acetylamino)-4-o-tolyl-pyridin-3-yl]-N-methyl-isobutyramide] showed a Ki of 1.62 nM. This Ki and that of the compound before are within 1.5-fold of each other.

On to `Cc1ccccc1-c1cc([S+]([O-])c2ccccn2)ncc1C(=O)N(C)Cc1cc(C(F)(F)F)cc(C(F)(F)F)c1` (racemic) [Example 99, (RS)-N-(3,5-Bis-trifluoromethyl-benzyl)-N-methyl-6-(pyridine-2-sulfinyl)-4-o-tolyl-nicotinamide], for which the affinity corresponds to a Ki of 2.63 nM.

Consider `Cc1ccccc1-c1cc(N(C(=O)C2CC2)C(=O)C2CC2)ncc1N(C)C(=O)C(C)(C)c1cc(C(F)(F)F)cc(C(F)(F)F)c1` [Example 16, Cyclopropanecarboxylic acid (5-{[2-(3,5-bis-trifluoromethyl-phenyl)-2-methyl-propionyl]-methyl-amino}-4-o-tolyl-pyridin-2-yl)-cyclopropanecarbonyl-amide], for which affinity was put at a Ki of 3.16 nM.

Regarding `Cc1ccccc1-c1cc(C2=CCNCC2)ncc1C(=O)N(C)Cc1cc(C(F)(F)F)cc(C(F)(F)F)c1` [Example 42, 4-o-Tolyl-1′,2′,3′,6′-tetrahydro-[2,4′]bipyridinyl-5-carboxylic acid (3,5-bis-trifluoromethyl-benzyl)-methyl-amide], the Ki was 0.832 nM.

As for `C#Cc1cc(-c2ccccc2C)c(N(C)C(=O)C(C)(C)c2cc(C(F)(F)F)cc(C(F)(F)F)c2)cn1` [Example 66, 2-(3,5-Bis-trifluoromethyl-phenyl)-N-(6-ethynyl-4-o-tolyl-pyridin-3-yl)-N-methyl-isobutyramide], the Ki is 2.69 nM.

In the case of `Cc1ccccc1-c1cc(Cl)ncc1N(C)C(=O)C(C)(C)c1cc(C(F)(F)F)cc(C(F)(F)F)c1` [Example 26, 2-(3,5-Bis-trifluoromethyl-phenyl)-N-(6-chloro-4-o-tolyl-pyridin-3-yl)-N-methyl-isobutyramide], the affinity corresponds to a Ki of 2.24 nM.

As for `Cc1noc(-c2cc(-c3ccccc3C)c(C(=O)N(C)Cc3cc(C(F)(F)F)cc(C(F)(F)F)c3)cn2)n1` [Example 62, N-(3,5-Bis-trifluoromethyl-benzyl)-N-methyl-6-(3-methyl-[1,2,4]oxadiazol-5-yl)-4-o-tolyl-nicotinamide], the inhibition constant (Ki) is 3.02 nM.

In the case of `Cc1ccccc1-c1cc(N(O)CCO)ncc1N(C)C(=O)C(C)(C)c1cc(C(F)(F)F)cc(C(F)(F)F)c1` [Example 8, 2-(3,5-Bis-trifluoromethyl-phenyl)-N-{6-[hydroxy-(2-hydroxy-ethyl)-amino]-4-o-tolyl-pyridin-3-yl}-N-methyl-isobutyramide], the Ki is 0.513 nM.

`Cc1ccccc1-c1cc(OCCCO)ncc1C(=O)N(C)Cc1cc(C(F)(F)F)cc(C(F)(F)F)c1` [Example 113, N-(3,5-Bis-trifluoromethyl-benzyl)-6-(3-hydroxy-propoxy)-N-methyl-4-o-tolyl-nicotinamide] had a Ki of 1.66 nM.
